Results reported in patent publication US4387106A, “Method of treating atherosclerosis with di(aralkyl)ureas and di(aralkyl)thioureas” (American Cyanamid Company, priority 1982, dated 1983).

Columns and labels:
[1] = target: T1, fatty acyl CoA:cholesterol acyl transferase (ACAT) (Rattus norvegicus, UniProt O70536); experiment: In vitro inhibition of fatty acyl CoA:cholesterol acyl transferase (ACAT), rat adrenal supernatant; assay type: biochemical; conditions: final concentration 5.2 μg./ml., pH 7.4, 37° C., oleoyl CoA (14C)
T1 construct: The supernatant, containing the microsomal fraction, served as the source of the cholesterol-esterifying enzyme; from tissue; host or cells: rat adrenals, homogenate, 1000 x g supernatant containing the microsomal fraction
T1 sequence (O70536 1-545): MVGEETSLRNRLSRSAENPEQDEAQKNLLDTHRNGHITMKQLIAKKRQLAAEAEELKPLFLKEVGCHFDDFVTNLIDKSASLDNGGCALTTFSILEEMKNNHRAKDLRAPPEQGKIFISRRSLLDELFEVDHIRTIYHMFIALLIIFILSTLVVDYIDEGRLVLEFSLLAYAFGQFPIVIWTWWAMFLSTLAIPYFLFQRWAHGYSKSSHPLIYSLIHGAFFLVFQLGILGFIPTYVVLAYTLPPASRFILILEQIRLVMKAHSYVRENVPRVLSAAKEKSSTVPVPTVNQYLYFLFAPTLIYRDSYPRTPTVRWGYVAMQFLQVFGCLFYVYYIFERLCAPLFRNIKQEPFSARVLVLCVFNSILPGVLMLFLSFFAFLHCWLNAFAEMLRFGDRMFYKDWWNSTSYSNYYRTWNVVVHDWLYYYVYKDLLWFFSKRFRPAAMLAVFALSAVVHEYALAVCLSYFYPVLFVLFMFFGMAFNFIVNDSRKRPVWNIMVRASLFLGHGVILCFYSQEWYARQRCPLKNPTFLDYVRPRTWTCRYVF
Protocol: The compounds were tested for their ability to inhibit ACAT according to the following procedure:
Rat adrenals were homogenized in 0.2 M monobasic potassium phosphate buffer, pH 7.4, and centrifuged at 1000 times gravity for 15 minutes at 5° C. The supernatant, containing the microsomal fraction, served as the source of the cholesterol-esterifying enzyme, fatty acyl CoA:cholesterol acyl transferase (ACAT). A mixture comprising 50 parts of adrenal supernatant, 10 parts of albumin (BSA) (50 mg./ml.), 3 parts of test compound (final concentration 5.2 μg./ml.) and 500 parts of buffer was preincubated at 37° C. for 10 minutes. After treatment with 20 parts of oleoyl CoA (^14 C--0.4 μCi) the mixture was incubated at 37° C. for 10 minutes. A control mixture, omitting the test compound, was prepared and treated in the same manner. The lipids from the incubation mixture were extracted into an organic solvent and separated by thin-layer chromatography. The cholesteryl ester fraction was counted in a scintillation counter.

[2] = test system: Cholesterol absorption; conditions: po, 0.03 % of diet, 336 h
Protocol: Compounds were tested in vitro for their ability to inhibit the enzyme fatty acyl CoA:cholesterol acyl transferase (ACAT) and in vivo for serum hypolipidemic activity as measured by their ability to inhibit lipid absorption in rats.
Inhibition of Cholesterol absorption was determined by feeding male Sprague-Dawley rats, weighing 150-170 g., A 1% cholesterol:0.5% cholic acid diet for 2 weeks. The diet also contained compounds being tested at a dose of 0.03% of the diet. Control rats were fed the same diet without any compound. At the end of the test, the rats were sacrificed by decapitation. Blood is collected, centrifuged at 1.5 kg times gravity for 10 minutes at 4° C., and the serum is then analyzed for cholesterol and triglycerides enzymatically by the method of Trinder, P., Analyst, 77, 321 (1952) on a Centrifichem 400 Analyzer. Livers are removed, a 0.4 g sample is taken from the center of the large lobe, and the sample is subjected to saponification using 25% saturated potassium hydroxide in ethanol. The resulting neutral sterols are extracted with petroleum ether and extract analyzed for cholesterol. The effectiveness of the compound in inhibiting cholesterol absorption is measured by the lowering of either serum cholesterol or liver cholesterol relative the values for control rats.

[3] = test system: Cholesterol absorption; conditions: po, 336 h
Protocol: Inhibition of cholesterol absorption was determined by feeding male Sprague-dawley rats weighing 150-170 g. a 1% cholesterol:0.5% cholic acid diet for 2 weeks. The diet also contained compounds being tested at doses of between 0.01% and 0.1% of the diet. […] Feces were collected for each 24 hour period for the remaining 5 days during which the rats were maintained on the 1% cholesterol:0.5% cholic acid plus test compound diet. Fecal ^14 C-neutral sterols were extracted with petroleum ether from saponified feces by the method of Grundy, S. M. et. al., J. Lipid Res., 6, 397 (1965) and counted in a scintillation counter. Acidic sterols (bile acids) were extracted by acidifying the saponified feces and extracting in chloroform:methanol (2:1) and counting the chloroform phase in a scintillation counter. Total extraction of radioactivity (98-100%) from saponified feces is realized by this procedure.
The effect of test compounds on cholesterol absorption was determined by:
1. increase in excreted ^14 C-neutral sterol
2. decrease in excreted ^14 C-acidic sterol
3. decrease in ^14 C-cholesterol or ^14 C-cholesteryl ester in the liver.
4. decrease in ^14 C-cholesterol or ^14 C-cholesteryl ester in the serum.

Row | Structure (SMILES) | inhibition at 5.2 µg/mL [1] [%] | Result (inhibition of cholesterol absorption: lowering of serum or liver cholesterol relative to control) [2] | Result (inhibition of cholesterol absorption, 14C-sterol excretion) [3]
1 | Cc1cc(Cl)ccc1NC(=O)N(Cc1ccccc1)Cc1ccccc1 [1,1-Dibenzyl-3-(4-chloro-2-methylphenyl)urea] | 62.7 | Active | Active
2 | O=C(Nc1ccc(Cl)cc1C(F)(F)F)N(Cc1ccccc1)Cc1ccccc1 [1,1-Dibenzyl-3-(4-chloro-2-trifluoromethylphenyl)urea] | 81.8 | Active | Active
3 | COc1ccc(C)cc1NC(=O)N(Cc1ccccc1)Cc1ccccc1 [1,1-Dibenzyl-3-(2-methoxy-5-methylphenyl)urea] | 87.8 | Active | Active
4 | Cc1ccc(NC(=S)N(Cc2ccccc2)Cc2ccccc2)c(C)c1 [1,1-Dibenzyl-3-(2,4-dimethylphenyl)thiourea] | 78.7 | Active | –
5 | Cc1cc(C)c(NC(=O)N(Cc2ccccc2)Cc2ccccc2)c(C)c1 [1,1-Dibenzyl-3-(2,4,6-trimethylphenyl)urea] | 36.9 | Active | Active
6 | Cc1ccc(NC(=S)N(Cc2ccccc2)Cc2ccccc2)cc1Cl [1,1-Dibenzyl-3-(3-chloro-4-methylphenyl)thiourea] | 94.1 | Active | –
7 | Cc1ccc(NC(=O)N(Cc2ccccc2)Cc2ccccc2)cc1C [1,1-Dibenzyl-3-(3,4-dimethylphenyl)urea] | 71.8 | Active | Active
8 | CCCCc1ccc(NC(=O)N(Cc2ccccc2)Cc2ccccc2)cc1 [1,1-Dibenzyl-3-(4-n-butylphenyl)urea] | 91.3 | Active | –
9 | O=C(Nc1cccc(Br)c1)N(Cc1ccccc1)Cc1ccccc1 [1,1-Dibenzyl-3-(3-bromophenyl)urea] | 91.9 | Active | –
10 | Cc1cccc(NC(=O)N(Cc2ccccc2)Cc2ccccc2)c1C [1,1-Dibenzyl-3-(2,3-dimethylphenyl)urea] | 88.1 | Active | Active
11 | Cc1cc(C)c(NC(=O)N(Cc2ccccc2)Cc2ccccc2)cc1C [1,1-Dibenzyl-3-(2,4,5-trimethylphenyl)urea] | 69.1 | Active | –
12 | Cc1ccc(Cl)cc1NC(=O)N(Cc1ccccc1)Cc1ccccc1 [1,1-Dibenzyl-3-(5-chloro-2-methylphenyl)urea] | 71.3 | Active | Active
13 | Cc1ccc(NC(=O)N(Cc2ccccc2)Cc2ccccc2)c(C)c1 [1,1-Dibenzyl-3-(2,4-dimethylphenyl)urea] | 89.9 | Active | Active
14 | Cc1ccc(NC(=O)N(Cc2ccccc2)Cc2ccccc2)cc1Cl [1,1-Dibenzyl-3-(3-chloro-4-methylphenyl)urea] | 94 | Active | Active
15 | Cc1cccc(NC(=S)N(Cc2ccccc2)Cc2ccccc2)c1 [1,1-Dibenzyl-3-(3-methylphenyl)thiourea] | 71.2 | Active | –
